Results: patent publication US11505523B2, “HDAC8 inhibitors for treating cancer” (City of Hope, priority 2013, dated 2022)
Where “and” joins values, the source holds several entries; their conditions need not be identical. Equal entries are not always repeated.

Key:
HeLa nuclear HDACs = experiment: Inhibition of HeLa nuclear HDACs (HeLa nuclear extract, mainly HDACs1-3); assay type: biochemical; settings: read-out: HeLa HDAC IC50
HDAC8 = HDAC8 (Homo sapiens (Human), UniProt Q9BY41); experiment: Inhibition of HDAC8; assay type: biochemical; settings: for IC50: mean SD of three determinations; for IC50 PCI34051/IC50 compound: inhibition of HDAC8, relative potency (Tables 1-3); for A (relative potency to PCI34051): inhibition of HDAC8, footnote: (Tables 11-13); for HDAC8 inhibitory activity compared with PCI34051: result in words
OCI-AML3 cells = experiment: Survival/apoptosis of OCI-AML3 AML cells by Annexin V labeling; assay type: cell-based, human; settings: Homo sapiens, OCI-AML-3, 48 h, read-out: OCI-AML3 Apoptosis IC50
MV4-11 cells [1] = experiment: Proliferation of MV4-11 cells, luminescent cell viability assay; assay type: cell-based, human; settings: Homo sapiens, read-out: MV4-11 Proliferation IC50
MOLM13 cells [2] = experiment: Survival/apoptosis of MOLM13 AML cells by Annexin V labeling; assay type: cell-based, human; settings: Homo sapiens, read-out: MOLM13 Apoptosis IC50
MV4-11 cells [3] = experiment: Survival/apoptosis of MV4-11 AML cells by Annexin V labeling; assay type: cell-based, human; settings: Homo sapiens, read-out: MV4-11 Apoptosis IC50
MOLM13 cells [4] = experiment: Proliferation of MOLM13 cells, luminescent cell viability assay; assay type: cell-based, human; settings: Homo sapiens, read-out: MOLM13 Proliferation IC50
Cl1-1 cells = experiment: Cytotoxicity / anti-proliferative activity in CL1-1 lung cancer cells; settings: read-out: Cytotoxicity IC50 Cl1-1; mean SD of three determinations
H1299 cells = experiment: Cytotoxicity / anti-proliferative activity in H1299 lung cancer cells; settings: read-out: Cytotoxicity IC50 H1299; mean SD of three determinations
CL1-5 cells = experiment: Cytotoxicity / anti-proliferative activity in CL1-5 lung cancer cells; settings: read-out: Cytotoxicity IC50 Cl1-5; mean SD of three determinations

Chain of HDAC8 (Q9BY41 whole entry): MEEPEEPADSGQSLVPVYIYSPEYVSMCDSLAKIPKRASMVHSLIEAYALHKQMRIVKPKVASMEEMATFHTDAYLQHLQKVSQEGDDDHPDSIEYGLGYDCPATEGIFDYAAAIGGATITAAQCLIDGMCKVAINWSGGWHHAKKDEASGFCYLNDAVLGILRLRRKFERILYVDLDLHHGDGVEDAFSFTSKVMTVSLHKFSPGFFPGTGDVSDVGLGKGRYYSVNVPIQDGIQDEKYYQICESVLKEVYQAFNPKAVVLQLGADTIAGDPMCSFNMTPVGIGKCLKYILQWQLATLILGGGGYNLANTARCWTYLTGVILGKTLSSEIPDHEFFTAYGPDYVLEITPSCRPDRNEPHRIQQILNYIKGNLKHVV

SMILES	IC50 (HeLa nuclear HDACs)	IC50 PCI34051/IC50 compound (HDAC8)	A (relative potency to PCI34051) (HDAC8)	IC50 (HDAC8)	further results
COc1ccc(/C=C/C(=O)NO)c(-c2ccccc2)c1 [Compound 22a, (E)-N-Hydroxy-4-methoxy-2-phenylcinnamide]	> 10 µM			0.072 µM and 0.0724 µM	
COc1ccc(/C=C/C(=O)NO)c(-c2ccc3c(c2)OCO3)c1 [Compound 5e]	8.55 ± 0.00012 µM	1.86	1.86		IC50 (OCI-AML3 cells): 12.5 µM; IC50 (MV4-11 cells [1]; MV4-11, 48 h): 7.49 µM; IC50 (MOLM13 cells [2]; MOLM-13, 48 h): 11.7 µM; IC50 (MV4-11 cells [3]; MV4-11, 48 h): 11.9 µM; IC50 (MOLM13 cells [4]; MOLM-13, 48 h): 3.36 µM
COc1ccc(Nc2cc(OC)ccc2/C=C/C(=O)NO)cc1 [Compound 6d]	> 10 µM	0.30	0.30		
COc1ccc(/C=C/C(=O)NO)c(-c2cccs2)c1 [Compound 5b]	> 10 µM	1.43	1.43		IC50 (OCI-AML3 cells): 2.35 µM; IC50 (MV4-11 cells [1]; MV4-11, 48 h): 0.0825 µM; IC50 (MOLM13 cells [2]; MOLM-13, 48 h): 0.345 µM; IC50 (MV4-11 cells [3]; MV4-11, 48 h): 0.524 µM; IC50 (MOLM13 cells [4]; MOLM-13, 48 h): 0.0533 µM
O=C(/C=C/c1ccc(-c2ccccc2)cc1-c1ccccc1)NO [Compound 27d, (E)-N-Hydroxy-2,4-diphenylcinnamide]	> 10 µM			0.1749 ± 0.0002 µM	
COc1cccc(Nc2cc(OC)ccc2/C=C/C(=O)NO)c1 [Compound 6c]	> 10 µM	0.44	0.44		
COc1ccc(/C=C/C(=O)NO)c(OCc2ccc(Br)cc2)c1 [Compound 13c, (E)-N-Hydroxy-2-(4-bromobenzyloxy)-4-methoxycinnamide]	> 10 µM				
COc1ccc(/C=C/C(=O)NO)c(Nc2ccccc2)c1 [Compound 6a]	> 10 µM	0.40	0.40		
CCCCCOc1ccc(/C=C/C(=O)NO)c(-c2ccccc2)c1 [Compound 27c, (E)-N-Hydroxy-4-pentoxy-2-phenylcinnamide]	> 10 µM			0.186 ± 0.0598 µM	
COc1cc(Nc2c(/C=C/C(=O)NO)ccc(OC)c2OC)cc(OC)c1OC [Compound 15d]	> 10 µM	0.44	0.44		
COc1cc(Nc2ncccc2/C=C/C(=O)NO)cc(OC)c1OC [Compound 21]	> 10 µM	0.68	0.68		
CCCOc1ccc(/C=C/C(=O)NO)c(-c2ccccc2)c1 [Compound 27a, (E)-N-Hydroxy-4-propoxy-2-phenylcinnamide]	> 10 µM			0.133 ± 0.0126 µM	
COc1ccc(/C=C/C(=O)NO)c(-c2ccc(C(=O)c3ccccc3)cc2)c1 [Compound 22f, (E)-N-Hydroxy-4-methoxy-2-(4-benzoylphenyl)cinnamide]	> 10 µM			0.0418 ± 0.0033 µM	IC50 (Cl1-1 cells): > 0.01 µM; IC50 (H1299 cells): 0.0084 ± 0.0002 µM; IC50 (CL1-5 cells): > 0.01 µM; HDAC8 inhibitory activity compared with PCI34051 (HDAC8): superior to PCI34051
COc1ccc(/C=C/C(=O)NO)c(OCc2ccccc2)c1 [Compound 13a, (E)-N-Hydroxy-2-benzyloxy-4-methoxycinnamide]	> 10 µM			0.207 ± 0.0134 µM	
COc1ccc(/C=C/C(=O)NO)c(-c2cccc3[nH]ccc23)c1 [Compound 5f]	> 10 µM	0.64	0.64		
COc1ccc(/C=C/C(=O)NO)c(-c2cccc3c2oc2ccccc23)c1 [Compound 22g, (E)-N-Hydroxy-4-methoxy-2-(dibenzofuran-4-yl)cinnamide]	> 10 µM			0.0477 ± 0.0007 µM	IC50 (Cl1-1 cells): 0.0085 ± 0.0012 µM; IC50 (H1299 cells): 0.0066 ± 0.0007 µM; IC50 (CL1-5 cells): 0.0087 ± 0.0001 µM; HDAC8 inhibitory activity compared with PCI34051 (HDAC8): superior to PCI34051
COc1ccc(/C=C/C(=O)NO)c(-c2ccc(Oc3ccccc3)cc2)c1 [Compound 22e, (E)-N-Hydroxy-4-methoxy-2-(4-phenoxyphenyl)cinnamide]	> 10 µM			0.174 ± 0.0059 µM	fold less potent than 22a (HDAC8) (HDAC8): three
CCCCOc1ccc(/C=C/C(=O)NO)c(-c2ccccc2)c1 [Compound 27b, (E)-N-Hydroxy-4-butoxy-2-phenylcinnamide]	> 10 µM			0.289 ± 0.0301 µM	

The next lines start with results.

IC50 (HeLa nuclear HDACs)	IC50 PCI34051/IC50 compound (HDAC8)	A (relative potency to PCI34051) (HDAC8)	SMILES	IC50 (HDAC8)	further results
> 10 µM			CCCC(COc1cc(OC)ccc1/C=C/C(=O)NO)Oc1ccc(OC)cc1 (stereo not shown) [Compound 18d, (E)-N-Hydroxy-2-(2-(4-methoxyphenoxyoxy)pentyloxy)-4-methoxycinnamide]	0.2 ± 0.0065 µM	
> 10 µM	0.17	0.17	COc1ccc(/C=C/C(=O)NO)c(Nc2ccccc2OC)c1 [Compound 6b]		
> 10 µM	1.90	1.90	COc1ccc(/C=C/C(=O)NO)c(-c2ccc(F)cc2)c1 [Compound 5d]		
0.7984 ± 0.0003 µM	0.28	0.28	COc1ccc(/C=C/C(=O)NO)c(-c2cncc3ccccc23)c1 [Compound 5g]		
> 10 µM			COc1ccc(COc2cc(OC)ccc2/C=C/C(=O)NO)cc1 [Compound 13d, (E)-N-Hydroxy-2-(4-methoxybenzyloxy)-4-methoxycinnamide]	0.397 ± 0.0127 µM	
> 10 µM	0.44	0.44	COc1ccc(/C=C/C(=O)NO)c(Nc2ccc(OC)c(OC)c2)c1 [Compound 6e]		
> 10 µM	0.49	0.49	COc1ccc(/C=C/C(=O)NO)c(Oc2cc(OC)c(OC)c(OC)c2)c1 [Compound 25]		
> 10 µM	0.55	0.55	COc1cc(Nc2cc(C(F)(F)F)ccc2/C=C/C(=O)NO)cc(OC)c1OC [Compound 15b]		
> 10 µM			COc1ccc(/C=C/C(=O)NO)c(-c2cccc3ccccc23)c1 [Compound 22c, (E)-N-Hydroxy-4-methoxy-2-(naphthalen-1-yl)cinnamide]	0.078 ± 0.0043 µM	
> 10 µM	1.17	1.17	COc1ccc(/C=C/C(=O)NO)c(-c2cccc(Cl)c2)c1 [Compound 5c]		
> 10 µM			COc1ccc(OCCOc2cc(OC)ccc2/C=C/C(=O)NO)cc1 [Compound 18a, (E)-N-Hydroxy-2-(2-(4-methoxyphenoxyoxy)ethoxy)-4-methoxycinnamide]	0.122 ± 0.0035 µM	
> 10 µM			COc1ccc(OC(C)COc2cc(OC)ccc2/C=C/C(=O)NO)cc1 (stereo not shown) [Compound 18b, (E)-N-Hydroxy-2-(2-(4-methoxyphenoxyoxy)propoxy)-4-methoxycinnamide]	0.191 ± 0.0022 µM	
> 10 µM	0.29	0.29	COc1ccc(/C=C/C(=O)NO)c(-c2cc(OC)c(OC)c(OC)c2)c1 [Compound 5a]		
> 10 µM	0.24	0.24	COc1ccc(/C=C/C(=O)NO)c(Nc2cc(OC)c(OC)c(OC)c2)c1 [Compound 6f]		
> 10 µM	0.38	0.38	COc1cc(Nc2cc(F)ccc2/C=C/C(=O)NO)cc(OC)c1OC [Compound 15a]		
0.836 ± 0.0091 µM	0.63	0.63	COc1ccc(/C=C/C(=O)NO)c(-c2cnc3ccccc3c2)c1 [Compound 5h]		IC50 (MV4-11 cells [1]; MV4-11, 48-hr, luminescent cell viability assay): 16.6 µM; IC50 (MOLM13 cells [2]; MOLM-13, 48-hr, Annexin V labeling): 90.9 µM; IC50 (MV4-11 cells [3]; MV4-11, 48-hr, Annexin V labeling): ~22700 µM; IC50 (MOLM13 cells [4]; MOLM-13, 48-hr, luminescent cell viability assay): 7.17 µM
